How the values were obtained:
[1] = tested on: Shmt1-deficient embryos (NTDs, exencephaly); test: Neural tube defects (exencephaly) in embryos of Shmt1 dams fed nucleoside-supplemented diets; format: in vivo, mouse; details: for Shmt1+/+ embryos with exencephaly: crosses involving Shmt1+/+ dams; for prevention of NTDs by supplementation of the folate-deficient (FD) diet: maternal folate deficiency, 0.2% thymidine or 0.1% 2'-deoxyuridine in diet
Text: NTDs were examined in litters harvested from crosses of 129SvEv-Shmt1 (N=10 and more) mice. Shmt1^+/−, Shm1^+/+, and Shmt1^−/− mice were generated from Shmt1^+/− breeding pairs maintained as a heterozygote breeding colonies. Shmt1^+/+ and Shmt1^−/− female mice were then crossed to Shmt1^+/− male mice for timed mating experiments, as described below.
Mice were maintained on a 12-hour light/dark cycle in a temperature-controlled room. For studies investigating Shmt1 disruption and NTDs, female mice were randomly assigned at weaning to experimental AIN93G diets containing folic acid (C) or AIN93G lacking folic acid (FD) (FIG. 2) and including 0.6% uridine (Rudolph F B & Van Buren C T (1993), which is hereby incorporated by reference in its entirety), 0.2% thymidine (Iwasa et al., “The Well-Balanced Nucleoside-Nucleotide Mixture ‘0G-VI’ for Special Medical Purposes,” Nutrition 13(4):361-364 (1997), which is hereby incorporated by reference in its entirety), or 0.1% 2′-Deoxyuridine supplementation (Dyets, Bethlehem, Pa.). Diets were assigned with these abbreviations: AIN-93G as control (“C”); Folate Deficient (“FD”), C+ supplemented with 0.6% uridine (“C+U”), C+ supplemented with 0.2% thymidine (“C+T”), C+ supplemented with 0.1% 2′-Deoxyuridine (“C+dU”), FD+ supplemented with 0.6% uridine (“FD+U”), FD+ supplemented with 0.2% thymidine (“FD+T”), FD+ supplemented with 0.1% 2′-Deoxyuridine (“FD+dU”).
(§1) For all studies, mouse dams were maintained on diet from weaning throughout the breeding period and for the duration of gestation, until killed. Virgin female mice aged 70-120 days were housed overnight with males. The following morning, females were examined for the presence of a vaginal plug. Nine o'clock a.m. the day of the plug appearance was designated as gestational day 0.5 (E0.5). Pregnant females were sacrificed by cervical dislocation at E11.5 and blood was collected by cardiac puncture. Gravid uteri were removed and all implants and resorption sites were recorded. Embryos were examined for presence of NTDs and measured for crown-rump length. All yolk sacs were collected for subsequent genotyping. Embryos were extracted at E11.5 and rapidly frozen in liquid nitrogen followed by storage at −80° C. for biochemical analyses. Embryos examined for morphological abnormalities were derived at E11.5, and fixed in 10% neutral buffered formalin.
Analysis of NTD incidence, including differences between Genotypes, Diets, and interactions of Diet×genotype were analyzed by 2-factor ANOVA by using Tukey's honestly significant difference for post hoc analysis.

[2] = tested on: embryos and litters of Shmt1 dams; test: Implants, resorptions, dead embryos and crown-rump length in litters of Shmt1 dams; format: in vivo, mouse; details: for implantation, dead embryos occurrence, rates of resorption compared with C diet: litters from dams
Text: as §1
Analysis of embryonic CR length, total litter resorptions and implants was analyzed by 2-factor ANOVA with Tukey's honestly significant difference for post hoc analysis, in which litter was considered as a random effect. Independent variables included maternal genotype and diet. Resorption rate was calculated as the ratio of resorptions/total implants per litter and log-transformation was applied to normalize the data. Chi-squared analyses were used to assess any deviation from expected genotype ratios based on Mendelian inheritance. Analysis of uracil concentration, Thymidine, deoxyuridine, glucose and folate were conducted by 2-factor ANOVA with Tukey honestly significant differences for post hoc analysis. Independent variables included maternal genotype and diet. All test were performed in JMP version 8.02 (SAS institute). Western blots analyses were assessed using ANOVA and Dunnett's Multiple Comparison Test. […] All statistics were performed using GraphPad Prism version 4.00 for Windows, GraphPad Software, San Diego Calif. USA.

[3] = tested on: intestinal tumors in Apc-min mice; test: Intestinal tumor number in Apc-min mice fed supplemented diets; format: in vivo, mouse; details: for intestinal tumors (number per mouse): AIN-93G diet lacking folic acid supplemented with 0.6% uridine or 0.1% deoxyuridine, FD alone 35+/-5
Text: SHMT1 null ([…]) mice were generated as previously described (MacFarlane et al., “Cytoplasmic Serine Hydroxymethyltransferase Regulates the Metabolic Partitioning of Methylenetetrahydrofolate but is Not Essential in Mice,” J. Biol. Chem. 283(38):25846-25853 (2008), which is hereby incorporated by reference in its entirety) and backcrossed a minimum of 10 generations onto the C57BL/6J strain. Mice were genotyped using the forward primer 5′-GACACTGTTCACATCCCTC-3′ (SEQ ID NO:1) and the reverse primer 5′-CAAAACATTCGGGAGCCTC-3′ (SEQ ID NO:2). The forward primer corresponds to an intron 6 sequence located 5′ to a loxP site and exon 7 and the reverse primer corresponds to an intron 7 sequence located downstream of a 3′ loxP site (MacFarlane et al., “Cytoplasmic Serine Hydroxymethyltransferase Regulates the Metabolic Partitioning of Methylenetetrahydrofolate but is Not Essential in Mice,” J. Biol. Chem. 283(38):25846-25853 (2008), which is hereby incorporated by reference in its entirety). C57BL/6J-Apc^Min/J (Apc^min/+) mice were obtained. Genotyping of Apc^min/+ mice was performed using the following primers recommended by The Jackson Laboratory protocol: wild-type forward primer 5′-GCCATCCCTTCACGTTAG-3′ (SEQ ID NO:3), Min forward primer 5′-[…]-3′ (SEQ ID NO:4), and a common reverse primer 5′-TTCCACTTTGGCATAAGGC-3′ (SEQ ID NO:5). […]
The small intestine and colon were removed, flushed with cold PBS, opened longitudinally, and laid flat lumen side up for examination using a dissecting microscope as previously described (Chiu et al., “Sulindac Causes Rapid Regression of Preexisting Tumors in Min/+Mice Independent of Prostaglandin Biosynthesis,” Cancer Res. 57:4267-73 (1997), which is hereby incorporated by reference in its entirety). Tumors were counted according to intestinal location (small intestine or colon) and their diameter measured by a pathologist-trained investigator who was blinded to the genotype of the intestinal specimen. Tumor load is a function of tumor number and area and was calculated as the total tumor area per mouse. […]

splotch mutant (Pax3^Sp) = details: splotch mutant / splotch homozygotes; literature (Wlodarczyk 2005; Fleming 1998; others); cited from earlier work
female mice = test: Gross observations in female mice weaned on the diets; format: in vivo, mouse
[4] = Shmt1-/- dams fed FD+T diet (0.2% thymidine), out of 32
[5] = Shmt1+/+ dams, C+U diet (inferred), out of 69
[6] = Shmt1+/+ female mice fed FD+U diet (0.6% uridine), out of 56

## Cc1cn([C@H]2C[C@H](O)[C@@H](CO)O2)c(=O)[nH]c1=O [thymidine, reference compound]
[1]; Shmt1+/+ dams fed FD+T diet (0.2% thymidine), out of 49
  number of embryos with NTDs: 2 NTDs
[1]; Shmt1+/+ dams fed FD+T diet (AIN93G lacking folic acid + 0.2% thymidine), out of 49
  frequency of NTDs (exencephaly) in embryos: 4.1%
[1]; [4]
  frequency of NTDs (exencephaly) in embryos: 9.4%
  number of embryos with NTDs: 3 NTDs
[1]
  Shmt1+/+ embryos with exencephaly: one
  prevention of NTDs by supplementation of the folate-deficient (FD) diet: did not prevent NTD occurrence and not
[1]; dams fed C+T diet (AIN-93G + 0.2% thymidine)
  NTD occurrence: No NTDs were uncovered

## O=c1ccn([C@@H]2O[C@H](CO)[C@@H](O)[C@H]2O)c(=O)[nH]1 [uridine]
[2]
  implantation, dead embryos occurrence, rates of resorption compared with C diet: Neither implantation, dead embryos occurrence, or rates of resorption were significantly different
[1]; [5]
  frequency of exencephaly in embryos: 5.8%
  number of embryos with NTDs: 4 NTDs
[1]; [6]
  frequency of exencephaly in embryos: 5.4%
  number of embryos with exencephaly: 3
[1]; Shmt1-/- dams fed FD+U diet (0.6% uridine), of 44 viable embryos
  number of embryos with exencephaly: 7
[1]; Shmt1-/- dams fed FD+U diet (folate deficient + 0.6% uridine), of 44 viable embryos
  frequency of exencephaly in embryos: 15.9%
[1]; Shmt1-/- dams, C+U diet (AIN-93G + 0.6% uridine; diet inferred from next sentence), out of 50 viable embryos
  frequency of exencephaly in embryos: 6%
[1]; Shmt1-/- dams, C+U diet (inferred), out of 50 viable embryos
  number of embryos with NTDs: 3 NTDs
[1]
  Shmt1+/+ embryos with exencephaly: One
[1]; uridine supplementation, independent of dietary folic acid
  effect on NTD frequency: exacerbated NTD frequency
[3]
  intestinal tumors (number per mouse): 18+/−2

## Nc1nc2ncc(CNc3ccc(C(=O)N[C@@H](CCC(=O)O)C(=O)O)cc3)nc2c(=O)[nH]1 [folic acid]
Splotch mutant (Pax3^Sp)
  rescue / prevention of NTDs by dietary supplementation: can be rescued

## O=c1ccn([C@H]2C[C@H](O)[C@@H](CO)O2)c(=O)[nH]1 [deoxyuridine, 2′-Deoxyuridine]
[2]; dams fed FD+dU and C+dU diets (0.1% 2'-deoxyuridine)
  number of dead embryos: higher number of dead embryos, but the differences did not reach significance
[2]
  implantation, dead embryos occurrence, rates of resorption compared with C diet: Neither implantation, dead embryos occurrence, or rates of resorption were significantly different
[1]; Shmt1+/+ and Shmt1-/- dams fed FD+dU diet (folic acid deficient + 0.1% 2'-deoxyuridine)
  NTD occurrence: did not exhibit NTDs
[1]
  prevention of NTDs by supplementation of the folate-deficient (FD) diet: prevented NTDs
Female mice; dU and dUFD groups
  other gross findings: Edematous of internal organs (up to 4 mice from dU and dUFD groups together), blood in GI track and uterus, and discoloration of pancreas
Female mice; female mice weaned on C+dU and FD+dU
  lymphoid aggregates on colons compared to other groups: High frequency of numerous lymphoid aggregates
[3]
  intestinal tumors (number per mouse): 29+/−2.0
[3]; FD diet + 0.1% deoxyuridine
  effect on tumor number: no effect on tumor number

Source: patent US9579337B2, “Use of uridine and deoxyuridine to treat folate-responsive pathologies” (priority 2011, dated 2017)
